Source: patent US5596018A, “Antiviral agents against aids-causing virus” (priority 1988, dated 1997)

Legend:
HIV-1 [1] = experiment: Anti-HIV-1 assay in HUT-78 cells, expression of viral antigen; assay type: cell-based; details: for SI: Selective index / EC50: HUT-78 cells; for EC50: Human immunodeficiency virus 1, HuT78, HIV-1 antigen expression, read-out: ED50 a: Antiviral 50% effective dose
in vitro = details: human
Description: Anti-HIV assays of fuchsinic acid were carried out in cultures of MT-4 and HUT-78 cells infected with AIDS-causing viruses such as HIV type 1 (HIV-1) and HIV type 2 (HIV-2), taking cytopathogenicity as a parameter of the inhibitory effect on replication of the viruses. The anti-HIV activity was also measured by monitoring the expression of viral antigen.

HIV-1 [2] = experiment: Anti-HIV-1 assay in MT-4 cells, inhibition of viral cytopathogenicity; assay type: cell-based; details: for EC50: Human immunodeficiency virus 1, MT4, HIV-1, cytopathogenic effect, read-out: ED50 a: Antiviral 50% effective dose; for EC50 / SI: Selective index: MT-4 cells
HIV-2 = experiment: Anti-HIV-2 assay in MT-4 cells, inhibition of viral cytopathogenicity; assay type: cell-based; details: Human immunodeficiency virus 2, MT4; HIV-2, MT-4 cells, cytopathogenic effect; read-out: 50% effective dose (ED50) for HIV-2

SMILES | SI: Selective index (HIV-1 [1]) | EC50 (HIV-1 [1]) [µM] | CC50 (in vitro; hut-78 cells) [µM] | CC50 (in vitro; mt-4 cells) [µM] | EC50 (HIV-1 [2]) [µM] | SI: Selective index (HIV-1 [2]) | Inhibition of HIV-1 antigen (HIV-1 [1]; at 25 μM) | EC50 (HIV-2) [µM] | Inhibition of cytopathogenic effect (CPE) (HIV-1 [2]; HIV-1, MT-4 cells, at 125 μM (FIG. 1-A))
O=C1C=CC(=C(c2ccc(O)cc2)c2ccc(O)cc2)C=C1 [Aurin] | < 1 | > 2.3 | 2.3 | 2.6 | > 2.6 | < 1 | – | – | –
O=C(O)C1=CC(=C(c2ccc(O)c(C(=O)O)c2)c2ccc(O)c(C(=O)O)c2)C=CC1=O [ATA, Aurintricarboxylic acid] | 19 | 0.69 | 13 | 590 | 5 | 118 | – | – | –
Cc1cc(C(=C2C=CC(=N)C(S(=O)(=O)O)=C2)c2ccc(N)c(S(=O)(=O)O)c2)cc(S(=O)(=O)O)c1N [Fuchsinic acid] | < 39 | 16 | > 625 | > 3120 | 42 | < 74 | inhibited | 63 | complete inhibition
Cc1ccc(C(=O)Nc2ccc(S(=O)(=O)O)c3cc(S(=O)(=O)O)cc(S(=O)(=O)O)c23)cc1NC(=O)c1cccc(NC(=O)Nc2cccc(C(=O)Nc3cc(C(=O)Nc4ccc(S(=O)(=O)O)c5cc(S(=O)(=O)O)cc(S(=O)(=O)O)c45)ccc3C)c2)c1 [Suramin] | 3.1 | 18 | 55 | 625 | 32 | 20 | – | – | –
